Measurements: patent US4731451A, “N-((2-oxo-3(2H)benzothiazolyl)methyl)-2-chloroacetanilides” (Monsanto Company, priority 1980, dated 1988)

Key:
Type in all cases: in vivo
Barnyardgrass [1] = assay: Pre-emergent herbicidal activity (Table II); details: 2-3 weeks
How it was run: (§1)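 Percent injury, converted to a fixed-scale rating, is recorded roughly 2-3 weeks after seeding and treatment. The active ingredient is blended into the cover-layer soil laid over seeded pans, which then sit in a greenhouse with bottom watering as needed.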

Canada Thistle = assay: Pre-emergent herbicidal activity (Table II); details: 2-3 weeks
How it was run: as §1

Cocklebur [2] = assay: Pre-emergent herbicidal activity (Table II); details: 2-3 weeks
How it was run: as §1

Downy Brome [3] = assay: Pre-emergent herbicidal activity (Table II); details: 2-3 weeks
How it was run: as §1

Johnsongrass = assay: Pre-emergent herbicidal activity (Table II); details: 2-3 weeks
How it was run: as §1

Lambsquarters [4] = assay: Pre-emergent herbicidal activity (Table II); details: 2-3 weeks
How it was run: as §1

Morningglory [5] = assay: Pre-emergent herbicidal activity (Table II); details: 2-3 weeks
How it was run: as §1

Quackgrass = assay: Pre-emergent herbicidal activity (Table II); details: 2-3 weeks
How it was run: as §1

Smartweed [6] = assay: Pre-emergent herbicidal activity (Table II); details: 2-3 weeks
How it was run: as §1

Velvetleaf [7] = assay: Pre-emergent herbicidal activity (Table II); details: 2-3 weeks
How it was run: as §1

Yellow Nutsedge = assay: Pre-emergent herbicidal activity (Table II); details: 2-3 weeks
How it was run: as §1

Barnyardgrass [8] = assay: Pre-emergent herbicidal activity (Table III)
How it was run: (§2)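 Percent injury per species, converted to a fixed rating scale, is recorded roughly 2-3 weeks after seeding and treatment. The compound is mixed through the soil used to cover the seeds, and pans are held in a greenhouse and watered from below.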

Cocklebur [9] = assay: Pre-emergent herbicidal activity (Table III)
How it was run: as §2

Crabgrass = assay: Pre-emergent herbicidal activity (Table III)
How it was run: as §2

Downy Brome [10] = assay: Pre-emergent herbicidal activity (Table III)
How it was run: as §2

Hemp Sesbania = assay: Pre-emergent herbicidal activity (Table III)
How it was run: as §2

Lambsquarters [11] = assay: Pre-emergent herbicidal activity (Table III)
How it was run: as §2

Morningglory [12] = assay: Pre-emergent herbicidal activity (Table III)
How it was run: as §2

Panicum = assay: Pre-emergent herbicidal activity (Table III)
How it was run: as §2

Rice = assay: Pre-emergent herbicidal activity (Table III)
How it was run: as §2

Smartweed [13] = assay: Pre-emergent herbicidal activity (Table III)
How it was run: as §2

Sorghum = assay: Pre-emergent herbicidal activity (Table III)
How it was run: as §2

Soybean = assay: Pre-emergent herbicidal activity (Table III)
How it was run: as §2

Sugarbeet = assay: Pre-emergent herbicidal activity (Table III)
How it was run: as §2

Velvetleaf [14] = assay: Pre-emergent herbicidal activity (Table III)
How it was run: as §2

Wheat = assay: Pre-emergent herbicidal activity (Table III)
How it was run: as §2

Wild Buckwheat = assay: Pre-emergent herbicidal activity (Table III)
How it was run: as §2
Note: ranges in brackets are in %.

For `CC1=C(N(Cn2c(=O)sc3ccccc32)C(=O)CCl)CCCC1` [Example 10, N--[(2-oxo-3(2H)--benzothiazolyl)methyl]-N--(2-methyl-1-cyclohexen-1-yl)-2-chloro-amide], the Herbicidal rating (Barnyardgrass [1]; 5.6 kg/ha) was 3 (75-100), the Herbicidal rating (Barnyardgrass [1]; 11.2 kg/ha) was 3 (75-100) and the Herbicidal rating (Canada Thistle; 5.6 kg/ha) was 0 (0-24). The Herbicidal rating (Canada Thistle; 11.2 kg/ha) was 0 (0-24), the Herbicidal rating (Cocklebur [2]; 5.6 kg/ha) was 0 (0-24) and the Herbicidal rating (Cocklebur [2]; 11.2 kg/ha) was 0 (0-24). The Herbicidal rating (Downy Brome [3]; 5.6 kg/ha) was 3 (75-100), the Herbicidal rating (Downy Brome [3]; 11.2 kg/ha) was 3 (75-100) and the Herbicidal rating (Johnsongrass; 5.6 kg/ha) was 0 (0-24). For the same compound, the Herbicidal rating (Johnsongrass; 11.2 kg/ha) was 0 (0-24), the Herbicidal rating (Lambsquarters [4]; 5.6 kg/ha) was 0 (0-24) and the Herbicidal rating (Lambsquarters [4]; 11.2 kg/ha) was 0 (0-24). The Herbicidal rating (Morningglory [5]; 5.6 kg/ha) was 3 (75-100), the Herbicidal rating (Morningglory [5]; 11.2 kg/ha) was 1 (25-49) and the Herbicidal rating (Quackgrass; 5.6 kg/ha) was 3 (75-100). For the same compound, the Herbicidal rating (Quackgrass; 11.2 kg/ha) was 0 (0-24), the Herbicidal rating (Smartweed [6]; 5.6 kg/ha) was 0 (0-24) and the Herbicidal rating (Smartweed [6]; 11.2 kg/ha) was 0 (0-24). The Herbicidal rating (Velvetleaf [7]; 5.6 kg/ha) was 0 (0-24), the Herbicidal rating (Velvetleaf [7]; 11.2 kg/ha) was 0 (0-24) and the Herbicidal rating (Yellow Nutsedge; 5.6 kg/ha) was 1 (25-49). For the same compound, the Herbicidal rating (Yellow Nutsedge; 11.2 kg/ha) was 1 (25-49), the Herbicidal rating (Barnyardgrass [8]; 0.056 kg/ha) was 3 (75-100) and the Herbicidal rating (Barnyardgrass [8]; 0.28 kg/ha) was 3 (75-100). For the same compound, the Herbicidal rating (Barnyardgrass [8]; 1.12 kg/ha) was 2 (50-74), the Herbicidal rating (Barnyardgrass [8]; 5.6 kg/ha) was 3 (75-100) and the Herbicidal rating (Cocklebur [9]; 0.056 kg/ha) was 0 (0-24). The Herbicidal rating (Cocklebur [9]; 0.28 kg/ha) was 0 (0-24), the Herbicidal rating (Cocklebur [9]; 1.12 kg/ha) was 0 (0-24) and the Herbicidal rating (Cocklebur [9]; 5.6 kg/ha) was 0 (0-24). For the same compound, the Herbicidal rating (Crabgrass; 0.056 kg/ha) was 3 (75-100), the Herbicidal rating (Crabgrass; 0.28 kg/ha) was 3 (75-100) and the Herbicidal rating (Crabgrass; 1.12 kg/ha) was 3 (75-100). The Herbicidal rating (Crabgrass; 5.6 kg/ha) was 3 (75-100), the Herbicidal rating (Downy Brome [10]; 0.056 kg/ha) was 0 (0-24) and the Herbicidal rating (Downy Brome [10]; 0.28 kg/ha) was 0 (0-24). For the same compound, the Herbicidal rating (Downy Brome [10]; 1.12 kg/ha) was 0 (0-24), the Herbicidal rating (Downy Brome [10]; 5.6 kg/ha) was 2 (50-74) and the Herbicidal rating (Hemp Sesbania; 0.056 kg/ha) was 0 (0-24). For the same compound, the Herbicidal rating (Hemp Sesbania; 0.28 kg/ha) was 0 (0-24), the Herbicidal rating (Hemp Sesbania; 1.12 kg/ha) was 0 (0-24) and the Herbicidal rating (Hemp Sesbania; 5.6 kg/ha) was 0 (0-24). The Herbicidal rating (Lambsquarters [11]; 0.056 kg/ha) was 1 (25-49), the Herbicidal rating (Lambsquarters [11]; 0.28 kg/ha) was 0 (0-24) and the Herbicidal rating (Lambsquarters [11]; 1.12 kg/ha) was 1 (25-49). The Herbicidal rating (Lambsquarters [11]; 5.6 kg/ha) was 3 (75-100), the Herbicidal rating (Morningglory [12]; 0.056 kg/ha) was 0 (0-24) and the Herbicidal rating (Morningglory [12]; 0.28 kg/ha) was 0 (0-24). For the same compound, the Herbicidal rating (Morningglory [12]; 1.12 kg/ha) was 0 (0-24), the Herbicidal rating (Morningglory [12]; 5.6 kg/ha) was 0 (0-24) and the Herbicidal rating (Panicum; 0.056 kg/ha) was 0 (0-24). The Herbicidal rating (Panicum; 0.28 kg/ha) was 0 (0-24), the Herbicidal rating (Panicum; 1.12 kg/ha) was 0 (0-24) and the Herbicidal rating (Panicum; 5.6 kg/ha) was 2 (50-74). The Herbicidal rating (Rice; 0.056 kg/ha) was 0 (0-24), the Herbicidal rating (Rice; 0.28 kg/ha) was 0 (0-24) and the Herbicidal rating (Rice; 1.12 kg/ha) was 0 (0-24). For the same compound, the Herbicidal rating (Rice; 5.6 kg/ha) was 3 (75-100), the Herbicidal rating (Smartweed [13]; 0.056 kg/ha) was 0 (0-24) and the Herbicidal rating (Smartweed [13]; 0.28 kg/ha) was 0 (0-24). The Herbicidal rating (Smartweed [13]; 1.12 kg/ha) was 1 (25-49), the Herbicidal rating (Smartweed [13]; 5.6 kg/ha) was 2 (50-74) and the Herbicidal rating (Sorghum; 0.056 kg/ha) was 0 (0-24). The Herbicidal rating (Sorghum; 0.28 kg/ha) was 0 (0-24), the Herbicidal rating (Sorghum; 1.12 kg/ha) was 0 (0-24) and the Herbicidal rating (Sorghum; 5.6 kg/ha) was 0 (0-24). The Herbicidal rating (Soybean; 0.056 kg/ha) was 0 (0-24), the Herbicidal rating (Soybean; 0.28 kg/ha) was 0 (0-24) and the Herbicidal rating (Soybean; 1.12 kg/ha) was 0 (0-24). The Herbicidal rating (Soybean; 5.6 kg/ha) was 0 (0-24), the Herbicidal rating (Sugarbeet; 0.056 kg/ha) was 0 (0-24) and the Herbicidal rating (Sugarbeet; 0.28 kg/ha) was 0 (0-24). The Herbicidal rating (Sugarbeet; 1.12 kg/ha) was 0 (0-24), the Herbicidal rating (Sugarbeet; 5.6 kg/ha) was 0 (0-24) and the Herbicidal rating (Velvetleaf [14]; 0.056 kg/ha) was 0 (0-24). The Herbicidal rating (Velvetleaf [14]; 0.28 kg/ha) was 0 (0-24), the Herbicidal rating (Velvetleaf [14]; 1.12 kg/ha) was 0 (0-24) and the Herbicidal rating (Velvetleaf [14]; 5.6 kg/ha) was 0 (0-24). For the same compound, the Herbicidal rating (Wheat; 0.056 kg/ha) was 0 (0-24), the Herbicidal rating (Wheat; 0.28 kg/ha) was 0 (0-24) and the Herbicidal rating (Wheat; 1.12 kg/ha) was 0 (0-24). For the same compound, the Herbicidal rating (Wheat; 5.6 kg/ha) was 1 (25-49), the Herbicidal rating (Wild Buckwheat; 0.056 kg/ha) was 0 (0-24) and the Herbicidal rating (Wild Buckwheat; 0.28 kg/ha) was 0 (0-24). The Herbicidal rating (Wild Buckwheat; 1.12 kg/ha) was 0 (0-24) and the Herbicidal rating (Wild Buckwheat; 5.6 kg/ha) was 0 (0-24).
